The source of these data is BindingDB's records for doi:10.1021/acs.jmedchem.9b01967 (The University of Tokyo, 2020).

The assay is described as follows: Inhibition of ATX (unknown origin)-mediated cell migration in human MDA-MB-231 cells assessed as reduction in cell motility after 3 hrs by Diff-Quick staining based microplate reader analysis.

What is called IC50 is the concentration that gives 50% inhibition. Consider `CCCCCCn1c(C)cc(=O)n2cc(-c3ccc(Cl)cc3)nc12`, for which the IC50 is 30 nM.
